The source of these data is patent US20230116760A1, “STRUCTURALLY-STABILIZED ONCOLYTIC PEPTIDES AND USES THEREOF” (Dana-Farber Cancer Institute, Inc., priority 2019, published 2023).

In data set [1] the test system is leukemia cells (e.g. U937, OCI-AML3 and MV4;11 cells). It counts as cell-based. Particulars: 24 h. On the procedure:
(§1) LDH release assay: To assess the release of lactate dehydrogenase (LDH) upon treatment with a structurally-stabilized peptide described herein, an LDH release assay can be used. Cultured cells, including, e.g., cancer cells and HUVEC cells, are plated in 96-well format (2×10^4 cells per well; including overnight incubation for adherent cells) and then treated with serial dilutions of structurally-stabilized peptides in a final volume in a final volume of 100 μL and incubated at 37° C. for the indicated time period (e.g., 90 minutes). The plates are spun down at 1500 rpm for 5 minutes at 4° C., and 80 μL of cell culture media is transferred to a clear plate (Corning), incubated with 80 μL of LDH reagent (Roche) for 15 minutes while shaking, and absorbance is measured at 490 nm on a microplate reader (SpectraMax M5 Microplate Reader, Molecular Devices). LDH release assays, as tailored to specific cancer cell types (OCI-AML3 cells and primary human pediatric B-ALL cells), are exemplified below.
LDH release assay: Cultured cells, including cancer cells and HUVEC cells, were plated in 96-well format (2×10^4 cells per well; including overnight incubation for adherent cells) and then treated with serial dilutions of Mag(i+4) peptides in a final volume in a final volume of […] and incubated at 37° C. for the indicated time period. […]

The conditions of data set [2]: mice; Mourtada et al., Nature Biotech, 2019; cited from earlier work.
A further data set relates to red blood cells (RBCs). The data set is classed as cell-based, human. The procedure: RBC hemolysis assay: To assess the hemolytic activity of a structurally-stabilized peptide described herein, a red blood cell (RBV) hemolysis assay can be used. Human blood samples are centrifuged to isolate RBCs, which are then washed and suspended in phosphate-buffered saline to yield a 1% (v/v) suspension. The suspension is added to serial dilutions of peptide stocks in water in clear round-bottom polypropylene 96-well plates and the plates incubated for 1 hour at 37° C. The plates are then centrifuged and the supernatant isolated to determine the amount of hemoglobin released using a spectrophotometer (570 nm). Percent hemolysis is calculated as: ([Treated Absorbance−Untreated Control Absorbance]×100)/(1% Triton X-100 Treated Absorbance−Untreated Control Absorbance).
Stapled oncolytic peptide synthesis: Fmoc-based solid-phase peptide synthesis was used to synthesize stapled antimicrobial peptides in accordance with previously reported methods for generating all-hydrocarbon stapled peptides. To achieve the various staple lengths, α-methyl, α-alkenyl amino acids were installed at i, i+4 positions using two S-pentenyl alanine residues (S5). For the stapling reaction, Grubbs 1st generation ruthenium catalyst dissolved in dichloroethane was added to the resin-bound peptides. To ensure maximal conversion, three to five rounds of stapling were performed. The peptides were then cleaved off of the resin using trifluoroacetic acid, precipitated using a hexane:ether (1:1) mixture, air dried, and purified by LC-MS. All peptides were quantified by amino acid analysis. RBC hemolysis assay: Human blood samples were centrifuged to isolate red blood cells (RBCs), which were then washed and suspended in phosphate-buffered saline to yield a 1% (v/v) suspension. The suspension was added to serial dilutions of peptide stocks in water in clear round-bottom polypropylene 96-well plates and the plates incubated for 1 hour at 37° C. The plates were then centrifuged and the supernatant isolated to determine the amount of hemoglobin released using a spectrophotometer (570 nm). Percent hemolysis was calculated as: ([Treated Absorbance−Untreated Control Absorbance]×100)/(1% Triton X-100 Treated Absorbance−Untreated Control Absorbance).

The test system of a further data set is OCI-AML3 cells. As to the kind of experiment: LDH release assay of OCI-AML3 cells. It counts as cell-based, human. Particulars: 10 and 25 μg/mL, 90 minutes, FIG. 6, FIG. 7. On the procedure:
as §1
LDH release assay of OCI-AML3 cells: OCI-AML3 cells are seeded in 96-well plates (2×10^4 cells per well) in RPMI medium containing 5% FBS and treated with structurally-stabilized peptides for 90 minutes. LDH release is quantified by incubating centrifuged (e.g., at 1500 rpm) cell culture medium 1:1 with LDH reagent (Roche), followed by absorbance measurement 490 nm on a microplate reader (Spectramax M5). Percent LDH release was normalized to 1% Triton.
(§2) LDH release assay: Cultured cells, including cancer cells and HUVEC cells, were plated in 96-well format (2×10^4 cells per well; including overnight incubation for adherent cells) and then treated with serial dilutions of Mag(i+4) peptides in a final volume in a final volume of […] and incubated at 37° C. for the indicated time period. The plates were spun down at 1500 rpm for 5 min at 4° C., and 80 μL of cell culture media was transferred to a clear plate (Corning), incubated with 80 μL of LDH reagent (Roche) for 15 min while shaking, and absorbance measured at 490 nm on a microplate reader (SpectraMax M5 Microplate Reader, Molecular Devices). LDH release assays, as tailored to specific cancer cell types, are exemplified below.
LDH release assay of OCI-AML3 cells: OCI-AML3 cells were seeded in 96-well plates (2×10^4 cells per well) in RPMI medium containing 5% FBS and treated with peptides having the indicated amino acid sequences for 90 minutes. LDH release was quantified by incubating centrifuged cell culture medium 1:1 with LDH reagent (Roche), followed by absorbance measurement 490 nm on a microplate reader (Spectramax M5). Percent LDH release was normalized to 1% Triton. Data was pooled from 2 technical replicates.
(LDH leaks from cells whose membrane has failed.)

Another data set relates to U937 cells. As to the kind of experiment: LDH release assay of U937 cells. It counts as cell-based. Particulars: 10 and 25 μg/mL, 90 minutes, FIG. 6, FIG. 7. On the procedure:
as §1, §2

A further data set concerns B. cereus. The experiment in a line: killing of B. cereus. It counts as cell-based. Particulars: vs Mag(i+4)15.
The next data set concerns S. aureus. As to the kind of experiment: killing of S. aureus. The data set is classed as cell-based. The note with it: vs Mag(i+4)15.

Bridge positions count the residues as written; N and C are the ends. Square brackets hold non-standard residues; d marks the D form. Peptide text beside a SMILES is read from it. S5 = C=CCCC[C@](C)(N)C(=O)O; Nle = CCCC[C@H](N)C(=O)O

Consider `CC(C)[C@@H]1NC(=O)[C@@](C)(NC(=O)[C@H](C)NC(=O)[C@H](CCCCN)NC(=O)CNC(=O)[C@H](Cc2ccccc2)NC(=O)[C@H](CCCCN)NC(=O)[C@H](CCCCN)NC(=O)[C@H](CCCCN)NC(=O)[C@H](CO)NC(=O)[C@H](Cc2c[nH]cn2)NC(=O)[C@]2(C)CCCC=CCCC[C@](C)(NC(=O)CN)C(=O)NCC(=O)N[C@@H](CCCCN)C(=O)N[C@@H](Cc3ccccc3)C(=O)N2)CCCC=CCCC[C@@](C)(C(=O)N[C@@H](C)C(=O)N[C@@H](CCCCN)C(=O)N[C@@H](CCCCN)C(N)=O)NC(=O)[C@H](CCC(=O)O)NC(=O)CNC1=O` [Mag(i+4)1,15 (A9K, B21A, N22K, S23K), GX1GKFX2HSKKKFGKAX3VGEX4AKK] (H-G[S5]GKF[S5]HSKKKFGKA[S5]VGE[S5]AKK-NH2; staple 2-6, 16-20), for which, in data set [1], the “EC50 of leukemia cell lysis (LDH release)” value was in the range of 11.5 to 28.2 µg/mL. In addition, in data set [2], the “toxicity (gross toxicity, red cell hemolysis, kidney epithelium)” value was “without gross toxicity, red cell hemolysis or damage to kidney epithelium”.
Regarding `CCCC[C@H](NC(=O)[C@@H](NC(=O)[C@H](CCC(=O)O)NC(=O)CNC(=O)[C@@H](NC(=O)[C@H](Cc1ccccc1)NC(=O)[C@H](C)NC(=O)[C@H](CCCCN)NC(=O)CNC(=O)[C@H](Cc1ccccc1)NC(=O)[C@H](CCCCN)NC(=O)[C@H](CCCCN)NC(=O)[C@H](C)NC(=O)[C@H](CO)NC(=O)[C@]1(C)CCCC=CCCC[C@](C)(NC(=O)[C@@H](NC(=O)CN)[C@@H](C)CC)C(=O)N[C@@H](CCCCN)C(=O)N[C@@H](Cc2ccccc2)C(=O)N[C@@H](CC(C)C)C(=O)N1)C(C)C)[C@@H](C)CC)C(=O)N[C@@H](CC(N)=O)C(=O)N[C@@H](CO)C(N)=O` [Mag(i+4)2, GIX1KFLX2SAKKFGKAFVGEIBNS] (H-GI[S5]KFL[S5]SAKKFGKAFVGEI[Nle]NS-NH2; staple 3-7), in the data set with red blood cells (RBCs), the RBC lysis result is reported as “little to no effect on RBCs”.
On the same count and under the same terms, the value for `CCCC[C@H](NC(=O)[C@@H](NC(=O)[C@H](CCC(=O)O)NC(=O)CNC(=O)[C@@H](NC(=O)[C@H](Cc1ccccc1)NC(=O)[C@H](C)NC(=O)[C@H](CCCCN)NC(=O)CNC(=O)[C@H](Cc1ccccc1)NC(=O)[C@]1(C)CCCC=CCCC[C@](C)(NC(=O)[C@H](CC(C)C)NC(=O)[C@H](Cc2ccccc2)NC(=O)[C@H](CCCCN)NC(=O)CNC(=O)[C@@H](NC(=O)CN)[C@@H](C)CC)C(=O)N[C@@H](CO)C(=O)N[C@@H](C)C(=O)N[C@@H](CCCCN)C(=O)N1)C(C)C)[C@@H](C)CC)C(=O)N[C@@H](CC(N)=O)C(=O)N[C@@H](CO)C(N)=O` [Mag(i+4)6, GIGKFLX1SAKX2FGKAFVGEIBNS] (H-GIGKFL[S5]SAK[S5]FGKAFVGEI[Nle]NS-NH2; staple 7-11) was “no effect on any cell type”.
Turning to `CCCC[C@@H]1NC(=O)[C@H]([C@@H](C)CC)NC(=O)[C@@](C)(NC(=O)CNC(=O)[C@@H](NC(=O)[C@H](Cc2ccccc2)NC(=O)[C@H](C)NC(=O)[C@H](CCCCN)NC(=O)CNC(=O)[C@H](Cc2ccccc2)NC(=O)[C@H](CCCCN)NC(=O)[C@H](CCCCN)NC(=O)[C@H](C)NC(=O)[C@H](CO)NC(=O)[C@H](Cc2c[nH]cn2)NC(=O)[C@H](CC(C)C)NC(=O)[C@H](Cc2ccccc2)NC(=O)[C@H](CCCCN)NC(=O)CNC(=O)[C@@H](NC(=O)CN)[C@@H](C)CC)C(C)C)CCCC=CCCC[C@@](C)(C(N)=O)NC(=O)[C@H](CC(N)=O)NC1=O` [Mag(i+4)18, GIGKFLHSAKKFGKAFVGX1IBNX2] (H-GIGKFLHSAKKFGKAFVG[S5]I[Nle]N[S5]-NH2; staple 19-23), the RBC lysis entry with red blood cells (RBCs) is “lytic to all three cell types”.
Consider “GKGKFLHSAKKFGKAX1VGEX2BNS [Mag(i+4)15 (I2K)]”, for which the “cancer cell lysis by LDH release, compared with parent Mag(i+4)15” value in the data set with OCI-AML3 cells was “retain substantial, if not all, oncolytic activity”; in the data set with U937 cells, “retain substantial, if not all, oncolytic activity”. Besides, the “killing of B. cereus compared to the parent compound” value in the data set on B. cereus is “substantially impaired”. Further, the “killing of S. aureus compared to the parent compound” value in the data set on S. aureus is reported as “substantially impaired”.
Consider “KIGKFLHSAKKFGKAX1VGEX2BNS [Mag(i+4)15 (G1K)]”, for which the “cancer cell lysis by LDH release, compared with parent Mag(i+4)15” value is recorded as “retain substantial, if not all, oncolytic activity” in the data set with OCI-AML3 cells and “retain substantial, if not all, oncolytic activity” with U937 cells. Also, in the data set on B. cereus, the “killing of B. cereus compared to the parent compound” value is reported as “substantially impaired”. For the same molecule, in the data set on S. aureus, the “killing of S. aureus compared to the parent compound” value is “substantially impaired”.
